Measured values: article PMC9632963, “Preclinical characterization and phase I clinical trial of CT053PTSA targets MET, AXL, and VEGFR2 in patients with advanced solid tumors” (Frontiers in Immunology, 2022)
Where two headings read alike, the source gives them in different places.

Key:
[1] = Phase I trial: clinical pharmacokinetics in plasma; type: in vivo, human; conditions: for AUC(0-inf) / Cmax / AUC(0-t) / AUC / half-life / Tmax / Vd/F: human, plasma; for AUC(0-t): read-out: AUC0-168; for AUC: read-out: AUC0-τ; for Vd/F: read-out: Vz/F
Method: A clinical pharmacokinetic study of CT053PTSA was performed for both single doses and multiple doses. Blood samples were collected from each subject at prespecified times before and after single-dose administration (systemic blood samples: before treatment and 0.5, 1, 2, 3, 4, 5, 8, 12, 24, 36, 48, 72, 120 and 168 hours after treatment) and during multiple dosing (cycle 1 before treatment on Days 8, 15 and 22, as well as systemic blood samples on Day 28). […]
Statistical analysis of CT053-treated tumors versus vehicle-treated tumors or versus nontreated tumors was performed by repeated-measures ANOVA. The data from the tumor xenograft models were expressed as the means ± standard error of the mean (SEM) and were plotted as a function of time. Noncompartmental pharmacokinetic analysis was performed using Phoenix WinNonlin Version 6.2.1 (Certara Inc., NJ, USA). Demographics and laboratory results of all the subjects were summarized using descriptive statistics. The pharmacokinetic parameters Tmax and T1/2 were shown as the median (min, max) and mean ± SD, respectively. A two-sided P < 0.05 was considered to indicate statistical significance. Statistical analysis was performed by using GraphPad Prism 5.0 (GraphPad Prism, RRID : SCR_002798) and SPSS software version 19.0 (SPSS, RRID : SCR_002865).

[2] = system: circulating tumor DNA (ctDNA); assay: Circulating tumor DNA sequencing in plasma of one NSCLC patient; type: in vivo, human
Method: Moreover, we analyzed the patient who achieved SD for 24 weeks. The patient was a person with EGFR exon 19-21 wild type, ALK negative non-small cell lung cancer (NSCLC). They had failed 1 line of platinum-based chemotherapy with a PFS of 27 months. […] The plasma of the patient was prospectively collection on the first day of cycle 1, 3, 6, whole exon sequencing of 416 genes was performed to assess circulating tumor DNA (ctDNA) with Illumina platform. […] The patient received 6-time tumor assessments, the response was classified as SD ( Figure 5E ), and the nontarget lesions remained unchanged ( Figure 5F ). However, the patient experienced tumor progression after 6 cycles of CT053PTSA administration, and which point, the target lesion enlarged.

[3] = oral, 15 mg, Multiple doses day 28, 15 mg, n=1
[4] = oral, 15 mg, Single dose day 1, 15 mg, n=1
[5] = oral, 30 mg, Multiple doses day 28, 30 mg, n=1
[6] = oral, 30 mg, Single dose day 1, 30 mg, n=1
[7] = oral, 60 mg, Multiple doses day 28, 60 mg, n=3, Geometric Mean (CV%)
[8] = oral, 60 mg, Single dose day 1, 60 mg, n=5, Geometric Mean (CV%)
[9] = oral, 100 mg, Multiple doses day 28, 100 mg, n=5, Geometric Mean (CV%)
[10] = oral, 100 mg, Single dose day 1, 100 mg, n=7, Geometric Mean (CV%)
[11] = oral, 150 mg, Multiple doses day 28, 150 mg, n=1
[12] = oral, 150 mg, Single dose day 1, 150 mg, n=4, Geometric Mean (CV%)

Structure (SMILES): Cc1c(C(=O)Nc2ccc(Oc3ccnc4cc(OCC(C)(C)O)ccc34)c(F)c2)c(=O)n(-c2ccccc2)n1C [CT053PTSA]
- Cl/F ([1]; Multiple doses day 28, 15 mg, n=1): 1580 mL/h
- Cl/F ([1]; Multiple doses day 28, 30 mg, n=1): 1090 mL/h
- Cl/F ([1]; Multiple doses day 28, 150 mg, n=1): 4470 mL/h
- Cl/F ([1]; Single dose day 1, 15 mg, n=1): 2420 mL/h
- Cl/F ([1]; Single dose day 1, 30 mg, n=1): 1000 mL/h
- steady state reached ([1]; daily dosing): ≤ 8 days
- AUC(0-inf) [1, 3]: 24000 ng·h/mL
- Cmax [1, 3]: 598 ng/mL
- AUC(0-t) [1, 3]: 23700 ng·h/mL
- AUC [1, 3]: 9510 ng·h/mL
- half-life ([1]; oral, 15 mg, Multiple doses day 28, 15 mg, n=1, read-out: T1/2 (converted)): 27.9 h
- Tmax ([1]; oral, 15 mg, Multiple doses day 28, 15 mg, n=1, read-out: Tmax): 2 h
- Vd/F [1, 3]: 63.5 L
- AUC(0-inf) [1, 4]: 6190 ng·h/mL
- Cmax [1, 4]: 345 ng/mL
- AUC(0-t) [1, 4]: 6120 ng·h/mL
- AUC [1, 4]: 3760 ng·h/mL
- half-life ([1]; oral, 15 mg, Single dose day 1, 15 mg, n=1, read-out: T1/2 (converted)): 31.4 h
- Tmax ([1]; oral, 15 mg, Single dose day 1, 15 mg, n=1, read-out: Tmax): 3 h
- Vd/F [1, 4]: 110 L
- AUC(0-inf) [1, 5]: 84100 ng·h/mL
- Cmax [1, 5]: 1790 ng/mL
- AUC(0-t) [1, 5]: 81200 ng·h/mL
- AUC [1, 5]: 27600 ng·h/mL
- half-life ([1]; oral, 30 mg, Multiple doses day 28, 30 mg, n=1, read-out: T1/2 (converted)): 38.4 h
- Tmax ([1]; oral, 30 mg, Multiple doses day 28, 30 mg, n=1, read-out: Tmax): 2 h
- Vd/F [1, 5]: 60.2 L
- AUC(0-inf) [1, 6]: 29900 ng·h/mL
- Cmax [1, 6]: 796 ng/mL
- AUC(0-t) [1, 6]: 29100 ng·h/mL
- AUC [1, 6]: 12300 ng·h/mL
- half-life ([1]; oral, 30 mg, Single dose day 1, 30 mg, n=1, read-out: T1/2 (converted)): 31.9 h
- Tmax ([1]; oral, 30 mg, Single dose day 1, 30 mg, n=1, read-out: Tmax): 3 h
- Vd/F [1, 6]: 46.2 L
- AUC(0-inf) [1, 7]: 91100 ng·h/mL
- Cmax [1, 7]: 2720 ng/mL
- AUC(0-t) [1, 7]: 89700 ng·h/mL
- AUC [1, 7]: 37000 ng·h/mL
- Vd/F [1, 7]: 60.5 L
- half-life ([1]; oral, 60 mg, Multiple doses day 28, 60 mg, n=3, Mean ± SD, read-out: T1/2 (converted)): 26.1 ± 4.5 h
- Tmax ([1]; oral, 60 mg, Multiple doses day 28, 60 mg, n=3, Median (Min, Max), read-out: Tmax): 2 h
- AUC(0-inf) [1, 8]: 29200 ng·h/mL
- Cmax [1, 8]: 1340 ng/mL
- AUC(0-t) [1, 8]: 28700 ng·h/mL
- AUC [1, 8]: 13700 ng·h/mL
- Vd/F [1, 8]: 71.8 L
- half-life ([1]; oral, 60 mg, Single dose day 1, 60 mg, n=5, Mean ± SD, read-out: T1/2 (converted)): 24.7 ± 5.7 h
- Tmax ([1]; oral, 60 mg, Single dose day 1, 60 mg, n=5, Median (Min, Max), read-out: Tmax): 2 h
- AUC(0-inf) [1, 9]: 156000 ng·h/mL
- Cmax [1, 9]: 4330 ng/mL
- AUC(0-t) [1, 9]: 146000 ng·h/mL
- AUC [1, 9]: 57300 ng·h/mL
- Vd/F [1, 9]: 90.9 L
- half-life ([1]; oral, 100 mg, Multiple doses day 28, 100 mg, n=5, Mean ± SD, read-out: T1/2 (converted)): 38.2 ± 14.3 h
- Tmax ([1]; oral, 100 mg, Multiple doses day 28, 100 mg, n=5, Median (Min, Max), read-out: Tmax): 2 h
- AUC(0-inf) [1, 10]: 57700 ng·h/mL
- Cmax [1, 10]: 1890 ng/mL
- AUC(0-t) [1, 10]: 56000 ng·h/mL
- AUC [1, 10]: 24400 ng·h/mL
- Vd/F [1, 10]: 79.8 L
- half-life ([1]; oral, 100 mg, Single dose day 1, 100 mg, n=7, Mean ± SD, read-out: T1/2 (converted)): 32.8 ± 8.5 h
- Tmax ([1]; oral, 100 mg, Single dose day 1, 100 mg, n=7, Median (Min, Max), read-out: Tmax): 2 h
- AUC(0-inf) [1, 11]: 50600 ng·h/mL
- Cmax [1, 11]: 2930 ng/mL
- AUC(0-t) [1, 11]: 50500 ng·h/mL
- AUC [1, 11]: 33600 ng·h/mL
- half-life ([1]; oral, 150 mg, Multiple doses day 28, 150 mg, n=1, read-out: T1/2 (converted)): 13.8 h
- Tmax ([1]; oral, 150 mg, Multiple doses day 28, 150 mg, n=1, read-out: Tmax): 2 h
- Vd/F [1, 11]: 88.7 L
- AUC(0-inf) [1, 12]: 68500 ng·h/mL
- Cmax [1, 12]: 2970 ng/mL
- AUC(0-t) [1, 12]: 65500 ng·h/mL
- AUC [1, 12]: 30500 ng·h/mL
- Vd/F [1, 12]: 99.8 L
- half-life ([1]; oral, 150 mg, Single dose day 1, 150 mg, n=4, Mean ± SD, read-out: T1/2 (converted)): 33.9 ± 13.7 h
- Tmax ([1]; oral, 150 mg, Single dose day 1, 150 mg, n=4, Median (Min, Max), read-out: Tmax): 2.5 h
- Tmax ([1]; po, multiple doses, oral, read-out: median Tmax): 2 h
- half-life ([1]; po, multiple oral doses, read-out: mean half-life, range over cohorts): 13.8 to 38.4 h
- Tmax ([1]; po, single dose, oral, read-out: median Tmax): 2 to 3 h
- half-life ([1]; po, single oral dose, read-out: mean half-life, range over cohorts): 24.7 to 33.9 h
- ctDNA APC p.E520X (c. G1558T) ([2]; Cycle 1, 60 mg): 0%
- ctDNA AXL p. A79T (c. G235A) ([2]; Cycle 1, 60 mg): 0%
- ctDNA BRCA1 p.E344X (c. G1030T) ([2]; Cycle 1, 60 mg): 0.32%
- ctDNA EGFR p. F712Y (c. T2135A) ([2]; Cycle 1, 60 mg): 0.12%
- ctDNA FLT3 p.p893L (c.C2678T) ([2]; Cycle 1, 60 mg): 0%
- ctDNA FLT4 p.D998V (c.A2993T) ([2]; Cycle 1, 60 mg): 0%
- ctDNA FP300 p.Q2332X (c.C6994T) ([2]; Cycle 1, 60 mg): 0.19%
- ctDNA PALB2 p.C800X (c.T2400A) ([2]; Cycle 1, 60 mg): 0%
- ctDNA APC p.E520X (c. G1558T) ([2]; Cycle 3, 60 mg): 0%
- ctDNA AXL p. A79T (c. G235A) ([2]; Cycle 3, 60 mg): 0%
- ctDNA BRCA1 p.E344X (c. G1030T) ([2]; Cycle 3, 60 mg): 0.12%
- ctDNA EGFR p. F712Y (c. T2135A) ([2]; Cycle 3, 60 mg): 0%
- ctDNA FLT3 p.p893L (c.C2678T) ([2]; Cycle 3, 60 mg): 0%
- ctDNA FLT4 p.D998V (c.A2993T) ([2]; Cycle 3, 60 mg): 0%
- ctDNA FP300 p.Q2332X (c.C6994T) ([2]; Cycle 3, 60 mg): 0.21%
- ctDNA PALB2 p.C800X (c.T2400A) ([2]; Cycle 3, 60 mg): 0%
- ctDNA APC p.E520X (c. G1558T) ([2]; Cycle 6, 60 mg): 0%
- ctDNA AXL p. A79T (c. G235A) ([2]; Cycle 6, 60 mg): 0%
- ctDNA BRCA1 p.E344X (c. G1030T) ([2]; Cycle 6, 60 mg): 0%
- ctDNA EGFR p. F712Y (c. T2135A) ([2]; Cycle 6, 60 mg): 0%
- ctDNA FLT3 p.p893L (c.C2678T) ([2]; Cycle 6, 60 mg): 0%
- ctDNA FLT4 p.D998V (c.A2993T) ([2]; Cycle 6, 60 mg): 0%
- ctDNA FP300 p.Q2332X (c.C6994T) ([2]; Cycle 6, 60 mg): 0%
- ctDNA PALB2 p.C800X (c.T2400A) ([2]; Cycle 6, 60 mg): 0%
